Results published in ChEMBL document CHEMBL5257105, “Identification and structure-activity relationships for a series of N, N-disubstituted 2-aminobenzothiazoles as potent inhibitors of S. aureus” (Bioorg Med Chem Lett, 2023).
In brackets after ≈: the same amount, converted by molar mass. Several values for one entry are separate records, joined by “and”; a condition that tells them apart may be missing. Equal values may be shown once. Activity calls are given as the source filed them. The rule behind the calls is not given here.

Key:
A549 = assay: (§1) Cytotoxicity against human A549 cells; type: toxicity, cell-based; conditions: a549
Staphylococcus aureus [1] = assay: Antibacterial activity against Staphylococcus aureus; type: functional
Staphylococcus aureus [2] = assay: Antibacterial activity against Staphylococcus aureus ATCC 216; type: functional
Staphylococcus aureus [3] = assay: Antibacterial activity against Staphylococcus aureus ATCC 711; type: functional
Staphylococcus aureus [4] = assay: Antibacterial activity against Staphylococcus aureus ATCC 219; type: functional
Staphylococcus aureus [5] = assay: Antibacterial activity against Staphylococcus aureus ATCC 25923; type: functional
Staphylococcus aureus [6] = assay: Antibacterial activity against Staphylococcus aureus ATCC 716; type: functional
Staphylococcus aureus [7] = assay: Antibacterial activity against Staphylococcus aureus ATCC 701; type: functional
Staphylococcus aureus [8] = assay: Antibacterial activity against Staphylococcus aureus ATCC 223; type: functional
Pseudomonas aeruginosa [9] = assay: Antibacterial activity against Pseudomonas aeruginosa PAO1 harbouring delta6 mutant with pore; type: functional
Staphylococcus aureus [10] = assay: Antibacterial activity against Staphylococcus aureus ATCC 215; type: functional
Escherichia coli [11] = assay: Antibacterial activity against Escherichia coli BW25113; type: functional
[12] = as §1; type: toxicity, cell-based; conditions: A549 cells
Staphylococcus aureus [13] = assay: Bacteriostatic activity against Staphylococcus aureus ATCC 25923 at MIC measured after 5 to 40 hrs by time kill assay; type: functional, organism-based; conditions: time 5-40 hrs
Pseudomonas aeruginosa [14] = assay: Antibacterial activity against Pseudomonas aeruginosa PAO1; type: functional
Pseudomonas aeruginosa [15] = assay: Antibacterial activity against Pseudomonas aeruginosa PAO1 harbouring delta6 mutant; type: functional
Staphylococcus aureus [16] = assay: Bacteriostatic activity against Staphylococcus aureus ATCC 25923 at 4 times MIC measured after 5 to 40 hrs by time kill assay; type: functional, organism-based; conditions: time 5-40 hrs
Acinetobacter baumannii = assay: Antibacterial activity against Acinetobacter baumannii ATCC 17978; type: functional
Staphylococcus aureus [17] = assay: Antibacterial activity against Staphylococcus aureus ATCC 217; type: functional
Staphylococcus aureus [18] = assay: Bactericidal activity against Staphylococcus aureus ATCC 25923 at 16 times MIC measured after 9.5 to 40 hrs by time kill assay; type: functional, organism-based; conditions: time 9.5-40 hrs
Escherichia coli [19] = assay: Antibacterial activity against Escherichia coli; type: functional
Escherichia coli [20] = assay: Antibacterial activity against wild type Escherichia coli harbouring pore; type: functional
Escherichia coli [21] = assay: Antibacterial activity against […] Escherichia coli harbouring TolC-deficient mutant; type: functional
Escherichia coli [22] = assay: Antibacterial activity against […] Escherichia coli harbouring TolC-deficient mutant with pore; type: functional
Pseudomonas aeruginosa [23] = assay: Antibacterial activity against Pseudomonas aeruginosa PAO1 harbouring pore; type: functional
Staphylococcus aureus [24] = assay: Bacteriostatic activity against Staphylococcus aureus ATCC 25923 at MIC by time kill assay; type: functional, organism-based
Staphylococcus aureus [25] = assay: Bactericidal activity against Staphylococcus aureus ATCC 25923 at 16 times MIC measured after 7 to 24 hrs by time kill assay; type: functional, organism-based; conditions: time 7-24 hrs
Staphylococcus aureus [26] = assay: Bacteriostatic activity against Staphylococcus aureus ATCC 25923 at 4 times MIC by time kill assay; type: functional, organism-based
[27] = Staphylococcus aureus, read-out: MIC
[28] = Staphylococcus aureus, read-out: MIC80

Cc1cc(Cl)cc2sc(N(CCCn3ccnc3)C(=O)c3ccccn3)nc12
CC50 (A549): 44.5 µM
MIC (Staphylococcus aureus [1]; [27]): 7.4 µM (≈ 3.05 µg/mL)

Cc1ccoc1C(=O)N(CCCn1ccnc1)c1nc2c(C)cc(Cl)cc2s1
MIC (Staphylococcus aureus [2]): 14.8 µM (≈ 6.14 µg/mL)
MIC (Staphylococcus aureus [3]): 14.8 µM (≈ 6.14 µg/mL)
MIC (Staphylococcus aureus [4]): 22.2 µM (≈ 9.21 µg/mL)
MIC (Staphylococcus aureus [5]): 2.6 µM (≈ 1.08 µg/mL)
CC50 (A549): 90.2 µM
MIC (Staphylococcus aureus [6]): 14.8 µM (≈ 6.14 µg/mL)
MIC (Staphylococcus aureus [7]): 14.8 µM (≈ 6.14 µg/mL)
MIC (Staphylococcus aureus [8]): 9.9 µM (≈ 4.11 µg/mL)
MIC (Staphylococcus aureus [1]; [27]): 2.6 µM (≈ 1.08 µg/mL)

Cc1cc(Cl)cc2sc(N(CCCn3ccnc3)C(=O)c3ccco3)nc12
MIC (Pseudomonas aeruginosa [9]): 6.25 µM (≈ 2.51 µg/mL)
MIC (Staphylococcus aureus [2]): 4.4 µM (≈ 1.76 µg/mL)
MIC (Staphylococcus aureus [10]): 14.8 µM (≈ 5.93 µg/mL)
MIC (Staphylococcus aureus [3]): 6.6 µM (≈ 2.65 µg/mL)
MIC (Staphylococcus aureus [4]): 2.9 µM (≈ 1.16 µg/mL)
MIC (Escherichia coli [11]): > 100 µM
CC50 (A549): 12 µM
CC50 [12]: 34.1 µM
Activity (Staphylococcus aureus [13]): Active
MIC (Pseudomonas aeruginosa [14]): > 100 µM
MIC (Staphylococcus aureus [6]): 4.4 µM (≈ 1.76 µg/mL)
MIC (Pseudomonas aeruginosa [15]): > 200 µM
MIC (Staphylococcus aureus [7]): 4.4 µM (≈ 1.76 µg/mL)
Activity (Staphylococcus aureus [16]): Active
MIC (Acinetobacter baumannii): > 100 µM
MIC (Staphylococcus aureus [17]): 6.6 µM (≈ 2.65 µg/mL)
MIC (Staphylococcus aureus [8]): 6.6 µM (≈ 2.65 µg/mL)
Activity (Staphylococcus aureus [18]): Active

Cc1cc(Cl)cc2sc(N(CCCn3ccnc3)C(=O)c3ccoc3)nc12
CC50 (A549): 53.4 µM
MIC (Staphylococcus aureus [1]; [27]): 2.6 µM (≈ 1.04 µg/mL)

Cc1cc(Cl)cc2sc(N(CCCn3ccnc3)C(=O)C(C)C)nc12
MIC (Pseudomonas aeruginosa [9]): 0.78 µM (≈ 0.294 µg/mL)
CC50 [12]: 46.4 µM
MIC (Pseudomonas aeruginosa [14]): > 200 µM
MIC (Pseudomonas aeruginosa [15]): 50 µM (≈ 18.8 µg/mL)
MIC (Escherichia coli [19]): > 100 µM
MIC (Escherichia coli [20]): > 100 µM
MIC (Escherichia coli [21]): 3.2 µM (≈ 1.21 µg/mL)
MIC (Escherichia coli [22]): 3.2 µM (≈ 1.21 µg/mL)
MIC (Pseudomonas aeruginosa [23]): > 200 µM
MIC (Staphylococcus aureus [1]): 2.6 µM (≈ 0.98 µg/mL)
MIC (Staphylococcus aureus [1]; [27]): 3.9 µM (≈ 1.47 µg/mL)

Cc1cc(Cl)cc2sc(N(CCCn3ccnc3)C(=O)C3CC3)nc12
MIC (Pseudomonas aeruginosa [9]): 1.56 µM (≈ 0.585 µg/mL)
MIC (Staphylococcus aureus [2]): 4.4 µM (≈ 1.65 µg/mL)
Activity (Staphylococcus aureus [24]): Active
Activity (Staphylococcus aureus [25]): Active
MIC (Staphylococcus aureus [10]): 14.8 µM (≈ 5.55 µg/mL)
MIC (Staphylococcus aureus [3]): 4.4 µM (≈ 1.65 µg/mL)
Activity (Staphylococcus aureus [26]): Active
MIC (Staphylococcus aureus [4]): 2.9 µM (≈ 1.09 µg/mL)
MIC (Staphylococcus aureus [5]): 3.9 µM (≈ 1.46 µg/mL)
MIC (Pseudomonas aeruginosa [14]): > 200 µM
MIC (Staphylococcus aureus [6]): 4.4 µM (≈ 1.65 µg/mL)
MIC (Pseudomonas aeruginosa [15]): 50 µM (≈ 18.7 µg/mL)
MIC (Staphylococcus aureus [7]): 4.4 µM (≈ 1.65 µg/mL)
MIC (Escherichia coli [19]): > 200 µM
MIC (Escherichia coli [20]): 200 µM (≈ 75 µg/mL)
MIC (Escherichia coli [21]): < 0.2 µM
MIC (Staphylococcus aureus [17]): 14.8 µM (≈ 5.55 µg/mL)
MIC (Escherichia coli [22]): < 0.2 µM
MIC (Staphylococcus aureus [8]): 4.4 µM (≈ 1.65 µg/mL)
MIC (Pseudomonas aeruginosa [23]): > 200 µM
MIC (Staphylococcus aureus [1]; [27]): 3.9 µM (≈ 1.46 µg/mL)

Cc1cc(Cl)cc2sc(N(CCCn3ccnc3)C(=O)CN)nc12
MIC (Staphylococcus aureus [1]; [27]): 100 µM (≈ 36.4 µg/mL)

Cc1cc(Cl)cc2sc(N(CC3CCC(N)CC3)C(=O)c3ccco3)nc12 (stereo unspecified)
MIC (Pseudomonas aeruginosa [9]): 12.5 µM (≈ 5.05 µg/mL)
MIC (Pseudomonas aeruginosa [14]): > 200 µM
MIC (Escherichia coli [19]): > 200 µM
MIC (Escherichia coli [20]): 100 µM (≈ 40.4 µg/mL)
MIC (Escherichia coli [21]): 50 µM (≈ 20.2 µg/mL)
MIC (Escherichia coli [22]): 25 µM (≈ 10.1 µg/mL)
MIC (Pseudomonas aeruginosa [23]): > 200 µM
MIC80 (Staphylococcus aureus [1]): 29.6 µM (≈ 12 µg/mL)
MIC80 (Staphylococcus aureus [1]; [28]): 19.8 µM (≈ 8 µg/mL)

NCc1ccc2nc(N(CCCn3ccnc3)C(=O)c3ccco3)sc2c1
MIC (Staphylococcus aureus [1]; [27]): > 100 µM

CO[C@@H]1[C@@H](OC(N)=O)[C@@H](O)[C@H](Oc2ccc3c(O)c(NC(=O)c4ccc(O)c(CC=C(C)C)c4)c(=O)oc3c2C)OC1(C)C [NOVOBIOCIN]
MIC (Pseudomonas aeruginosa [9]): 4 µM (≈ 2.45 µg/mL)
MIC (Pseudomonas aeruginosa [14]): > 512 µM
MIC (Pseudomonas aeruginosa [15]): 256 µM (≈ 157 µg/mL)
MIC (Escherichia coli [20]): 64 µM (≈ 39.2 µg/mL)
MIC (Escherichia coli [21]): 1 µM (≈ 0.613 µg/mL)
MIC (Escherichia coli [22]): 0.125 µM (≈ 0.0766 µg/mL)

Cc1cc(Cl)cc2sc(NC(=O)c3ccco3)nc12
CC50 [12]: 17.9 µM
MIC (Staphylococcus aureus [1]; [27]): > 100 µM

Cc1cc(Cl)cc2sc(N(CCCn3cc[n+](C)c3)C(=O)c3ccco3)nc12
MIC80 (Staphylococcus aureus [1]): 29.6 µM and 13.2 µM

Cc1cc(Cl)cc2sc(N(CCCn3ccnc3)C(=O)C3(C)CC3)nc12
CC50 (A549): 54.6 µM
MIC (Staphylococcus aureus [1]; [27]): 3.3 µM (≈ 1.28 µg/mL)

Cc1cc(Cl)cc2sc(N(CCCn3ccnc3)CS(=O)(=O)c3ccco3)nc12
CC50 [12]: 43.2 µM
MIC80 (Staphylococcus aureus [1]; [28]): 3.9 µM (≈ 1.76 µg/mL)

O=C(c1ccco1)N(CCCn1ccnc1)c1nc2ccccc2s1
CC50 [12]: 142 µM
MIC (Staphylococcus aureus [1]; [27]): 44.4 µM (≈ 15.6 µg/mL)

Cc1cc(Cl)cc2sc(N(CCCn3ccnc3)C(=O)C3CCC3)nc12
CC50 (A549): 44.6 µM
MIC (Staphylococcus aureus [1]; [27]): 2.6 µM (≈ 1.01 µg/mL)

Cc1cc(Cl)cc2sc(N(CCCn3ccnc3)Cc3ccccc3)nc12
MIC (Pseudomonas aeruginosa [9]): 3.2 µM (≈ 1.27 µg/mL)
CC50 [12]: 33.3 µM
MIC (Pseudomonas aeruginosa [15]): > 200 µM
MIC80 (Staphylococcus aureus [1]; [28]): 5.9 µM (≈ 2.34 µg/mL)

O=C(O)c1cn(C2CC2)c2cc(N3CCNCC3)c(F)cc2c1=O [CIPROFLOXACIN]
MIC (Staphylococcus aureus [5]): < 0.9 µM
